This passage reports inhibition and Ki results from US7998978B2 (Pfizer Inc., priority 2006, dated 2011).

In the first assay the target is T1, JNK1α1 (Homo sapiens, UniProt P45983).
T1 construct: catalytic domain containing amino acids 1-364 and N-terminal hexahistidine tag; hexahistidine (His6) (N); made in house; host or cells: E. coli BL21 (DE3)
T1 sequence (P45983 1-364): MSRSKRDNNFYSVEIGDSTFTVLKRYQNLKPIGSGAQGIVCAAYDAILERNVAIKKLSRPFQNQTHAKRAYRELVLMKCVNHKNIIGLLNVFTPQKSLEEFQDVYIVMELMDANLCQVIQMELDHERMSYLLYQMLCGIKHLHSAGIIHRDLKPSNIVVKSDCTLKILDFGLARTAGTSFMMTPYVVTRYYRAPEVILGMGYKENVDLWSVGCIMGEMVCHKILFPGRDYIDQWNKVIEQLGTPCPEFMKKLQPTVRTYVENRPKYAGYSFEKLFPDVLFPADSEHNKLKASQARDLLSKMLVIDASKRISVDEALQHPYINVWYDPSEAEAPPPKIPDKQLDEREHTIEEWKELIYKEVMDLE
The assay can be described thus: Coupled spectrophotometric (PK/LDH) JNK1α1 assay: % inhibition and Ki determination. The class given is biochemical. As to conditions: @1 uM; read-out: % Inhibition JNK-1. The gist of the method:
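Initial rates were taken from the absorbance decrease at 340 nm at 30° C. Ki was fitted with a tight-binding model over 11 concentrations (top 100 μM); single-point inhibition was tested at 1 or 10 μM.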
In the case of `Cc1nnc(CCNC(=O)c2cccc3cnc(N[C@H]4CC[C@H](O)CC4)nc23)o1` [Example 522, 2-[(trans-4-hydroxycyclohexyl)amino]-N-[2-(5-methyl-1,3,4-oxadiazol-2-yl)ethyl]quinazoline-8-carboxamide], the inhibition at 1 µM was determined as 18%. In the case of `O=C(NCc1nncn1C1CCCCC1)c1cccc2cnc(N[C@H]3CC[C@H](O)CC3)nc12` [Example 497, N-[(4-cyclohexyl-4H-1,2,4-triazol-3-yl)methyl]-2-[(trans-4-hydroxycyclohexyl)amino]quinazoline-8-carboxamide], the inhibition at 1 µM turned out to be 13%. Take `O=C(NC1(CO)CCCC1)c1ccc2cnc(NC3CCCC3)nc2c1` [Example 421, 2-(cyclopentylamino)-N-[1-(hydroxymethyl)cyclopentyl]quinazoline-7-carboxamide]: the inhibition at 1 µM turned out to be 15%. On the same count and under the same terms, in the case of `Cc1cc(NC(=O)c2cccc3cnc(N[C@H]4CC[C@H](O)CC4)nc23)nc(C)n1` [Example 322, N-(2,6-dimethylpyrimidin-4-yl)-2-[(trans-4-hydroxycyclohexyl)amino]quinazoline-8-carboxamide] it was 18%; in that of `O=C(NCCn1ccnc1)c1cccc2cnc(N[C@H]3CC[C@H](O)CC3)nc12` [Example 491, 2-[(trans-4-hydroxycycbohexyl)amino]-N-[2-(1H-imidazol-1-yl)ethyl]quinazoline-8-carboxamide], 13%. Take `O[C@H]1CC[C@H](Nc2ncc3ccc(OCC(F)(F)c4ccccn4)cc3n2)CC1` [Example 290, trans-4-{[7-(2,2-difluoro-2-pyridin-2-ylethoxy)quinazolin-2-yl]amino}cyclohexanol]: the inhibition at 1 µM is 53%.

The assay is the same for the next values; noted with them: @10 uM; read-out: % Inhibition JNK-1.
As for `Cc1nnc(CNC(=O)c2cccc3cnc(N[C@H]4CC[C@H](O)CC4)nc23)[nH]1` [Example 511, 2-[(trans-4-hydroxycyclohexyl)amino]-N-[(5-methyl-4H-1,2,4-triazol-3-yl)methyl]quinazoline-8-carboxamide], the inhibition at 10 µM is 47%. `CC(C)c1nc(CNC(=O)c2cccc3cnc(N[C@H]4CC[C@H](O)CC4)nc23)no1` [Example 502, 2-[(trans-4-hydroxycyclohexyl)amino]-N-[(5-isopropyl-1,2,4-oxadiazol-3-yl)methyl]quinazoline-8-carboxamide]: the inhibition at 10 µM came out at 50%. Still for that read-out and setting: next, `CN1CCC[C@H]1COc1cccc2cnc(N[C@H]3CC[C@H](O)CC3)nc12` [Example 257, trans-4-[(8-{[(2S)-1-methylpyrrolidin-2-yl]methoxy}quinazolin-2-yl)amino]cyclohexanol]: 62%; `CC(C)Nc1ncc2ccc(C(=O)NC(C)(C)CO)cc2n1` [Example 440, N-(2-hydroxy-1,1-dimethylethyl)-2-(isopropylamino)quinazoline-7-carboxamide]: 48%.

Take `CC(C)(CO)NC(=O)c1ccc2cnc(NC3CCC3)nc2c1` [Example 439, 2-(cyclobutylamino)-N-(2-hydroxy-1,1-dimethylethyl)quinazoline-7-carboxamide]: the inhibition at 10 µM is 44%.

The same assay, now with this note: JNK-1.
`CCCC(CO)NC(=O)c1ccc2cnc(N[C@H]3CC[C@H](O)CC3)nc2c1` (stereo partly drawn) [Example 332, 2-[(trans-4-hydroxycyclohexyl)amino]-N-[1-(hydroxymethyl)butyl]quinazoline-7-carboxamide] yielded an inhibitory constant (Ki) of 424 nM. On the same count and under the same terms, in the case of `O=C(N[C@H](CO)c1ccccc1)c1ccc2cnc(NC3CCCCC3)nc2c1` [Example 373, 2-(cyclohexylamino)-N-[(1S)-2-hydroxy-1-phenylethyl]quinazoline-7-carboxamide] it was 74 nM; in that of `O=C(N[C@H]1c2ccccc2C[C@H]1O)c1cccc2cnc(N[C@H]3CC[C@H](O)CC3)nc12` [Example 463, 2-[(trans-4-hydroxycyclohexyl)amino]-N-[(1S,2R)-2-hydroxy-2,3-dihydro-1H-inden-1-yl]quinazoline-8-carboxamide], 486 nM. Still for that read-out and setting: in the case of `O=C(NC(CO)c1ccccc1)c1ccc2cnc(NC3CCCC3)nc2c1` (stereo not shown) [Example 379, 2-(cyclopentylamino)-N-(2-hydroxy-1-phenylethyl)quinazoline-7-carboxamide] it was 177 nM; in that of `COc1ccc(CC(=O)Nc2cc3cc(-c4cn[nH]c4)ccc3cn2)cc1` [Example 1, 2-(4-methoxyphenyl)-N-[6-(1H-pyrazol-4-yl)isoquinolin-3-yl]acetamide], 76 nM; in that of `O=C(Nc1cc2cc(-c3cn[nH]c3)ccc2cn1)[C@H]1C[C@@H]1c1ccccc1` [Example 54, (1S,2S)-2-phenyl-N-[6-(1H-pyrazol-4-yl)isoquinolin-3-yl]cyclopropanecarboxamide], 8 nM. Still for that read-out and setting: next, `O=C(NCCC1CCCCO1)c1ccc2cnc(N[C@H]3CC[C@H](O)CC3)nc2c1` (stereo partly drawn) [Example 343, 2-[(trans-4-hydroxycyclohexyl)amino]-N-[2-(tetrahydro-2H-pyran-2-yl)ethyl]quinazoline-7-carboxamide]: 855 nM. `O=C(Nc1ccccn1)c1ccc2cnc(N[C@H]3CC[C@H](O)CC3)nc2c1` [Example 330, 2-[(trans-4-hydroxycyclohexyl)amino]-N-pyridin-2-ylquinazoline-7-carboxamide] had a Ki of 354 nM. Still for that read-out and setting: in the case of `c1cnc(N2CCC(Nc3cc4cc(-c5cn[nH]c5)ccc4cn3)CC2)nc1` [Example 216, 6-(1H-pyrazol-4-yl)-N-(1-pyrimidin-2-ylpiperidin-4-yl)isoquinolin-3-amine] it was 480 nM; in that of `CC(C)C(=O)Nc1cc2cc(-c3cn[nH]c3)ccc2cn1` [Example 16, 2-methyl-N-[6-(1H-pyrazol-4-yl)isoquinolin-3-yl]propanamide], 31 nM; in that of `O=C(COc1ccc2ccccc2c1)Nc1cc2cc(-c3cn[nH]c3)ccc2cn1` [Example 26, 2-(2-naphthyloxy)-N-[6-(1H-pyrazol-4-yl)isoquinolln-3-yl]acetamide], 7 nM. Same read-out and setting: in the case of `O=C(N[C@H](CO)Cc1ccccc1)c1ccc2cnc(NC3CCCC3)nc2c1` [Example 408, N-[(1S)-1-benzyl-2-hydroxyethyl]-2-(cyclopentylamino)quinazoline-7-carboxamide] it was 743 nM; in that of `CC(=O)N1CC[C@@H](NC(=O)c2ccc3cnc(N[C@H]4CC[C@H](O)CC4)nc3c2)C1` [Example 371, N-[(3R)-1-acetylpyrrolidin-3-yl]-2-[(trans-4-hydroxycyclohexyl)amino]quinazoline-7-carboxamide], 2490 nM. Compound `CNC(=O)COc1c(C)ccc2cnc(N[C@H]3CC[C@H](O)CC3)nc12` [Example 206, 2-({2-[(trans-4-hydroxycyclohexyl)amino]-7-methylquinazolin-8-yl}oxy) N-methylacetamide] returned an inhibitory constant (Ki) of 495 nM. On the same count and under the same terms, next, `O=C(NC(CO)c1ccccc1)c1ccc2cnc(NC3CCC3)nc2c1` (stereo not shown) [Example 383, 2-(cyclobutylamino)-N-(2-hydroxy-1-phenylethyl)quinazoline-7-carboxamide]: 200 nM; `c1cc(OC2CCOC2)c2nc(NC3CCOCC3)ncc2c1` (stereo not shown) [Example 173, 8-(tetrahydrofuran-3-yloxy)-N-(tetrahydro-2H-pyran-4-yl)quinazolin-2-amine]: 1910 nM; `O=C(N[C@H](CO)Cc1ccccc1)c1ccc2cnc(N[C@H]3CC[C@H](O)CC3)nc2c1` [Example 402, N-[(1S)-1-benzyl-2-hydroxyethyl]-2-[(trans-4-hydroxycyclohexyl)amino]quinazoline-7-carboxamide]: 605 nM. The compound `O=C(NCC(O)c1ccc(F)c(F)c1)c1cccc2cnc(N[C@H]3CC[C@H](O)CC3)nc12` (stereo partly drawn) [Example 456, N-[2-(3,4-difluorophenyl)-2-hydroxyethyl]-2-[(trans-4-hydroxycyclohexyl)amino]quinazoline-8-carboxamide] showed a Ki of 254 nM. For `Cc1cc(C(=O)NCC(=O)Nc2cc3cc(-c4cn[nH]c4)ccc3cn2)no1` [Example 19, 5-methyl-N-(2-oxo-2-{[6-(1H-pyrazol-4-yl)isoquinolin-3-yl]amino}ethyl)isoxazole-3-carboxamide], the affinity, expressed as Ki, was 13 nM.

In turn, `CCOC(=O)N1CC[C@@H](NC(=O)c2ccc3cnc(N[C@H]4CC[C@H](O)CC4)nc3c2)C1` [Example 364, ethyl 3-[({2-[(trans-4-hydroxycyclohexyl)amino]quinazolin-7-yl}carbonyl)amino]pyrrolidine-1-carboxylate] registered an inhibition constant Ki of 1990 nM.

As to `O[C@H]1CC[C@H](Nc2ncc3cccc(O[C@@H]4CCOC4)c3n2)CC1` [Example 167, trans-4-({8-[(3R)-tetrahydrofuran-3-yloxy]quinazolin-2-yl}amino)cyclohexanol], affinity was put at a Ki of 644 nM. For `CC(C)C(CO)NC(=O)c1cccc2cnc(N[C@H]3CC[C@H](O)CC3)nc12` (stereo partly drawn) [Example 450, 2-[(trans-4-hydroxycyclohexyl)amino]-N-[1-(hydroxymethyl)-2-methylpropyl]quinazoline-8-carboxamide], the Ki came out at 144 nM. For `CC(=O)N[C@H]1CC[C@H](Nc2ncc3cccc(C(=O)NC(C)(C)CO)c3n2)CC1` [Example 134, 2-{[trans-4-(acetylamino)cyclohexyl]amino}-N-(2-hydroxy-1,1-dimethylethyl)quinazoline-8-carboxamide], the Ki was found to be 127 nM. The same measure, in the same setting: next, `CC(C(=O)Nc1cc2cc(-c3cn[nH]c3)ccc2cn1)c1ccccc1` (stereo not shown) [Example 8, 2-phenyl-N-[6-(1H-pyrazol-4-yl)isoquinolin-3-yl]propanamide]: more than 50 nM. In turn, `O=C(NCCO)c1cccc2cnc(N[C@H]3CC[C@H](O)CC3)nc12` [Example 108, 2-[(trans-4-hydroxycyclohexyl)amino]-N-(2-hydroxyethyl)quinazoline-8-carboxamide] gave a Ki of 126 nM. Same read-out and setting: in the case of `CC[C@H](C)[C@@H](CO)NC(=O)c1ccc2cnc(NC3CCC3)nc2c1` [Example 414, 2-(cyclobutylamino)-N-[(1S,2S)-1-(hydroxymethyl)-2-methylbutyl]quinazoline-7-carboxamide] it was 1310 nM.
